Patent US20130274838A1, “OPTICAL CONTROL OF CARDIAC FUNCTION” (The Research Foundation of State University of New York, priority 2010, published 2013)

Experiments:
[1] = test system: cell pairs of adult canine ventricular myocytes and HEK-ChR2 (gap junctional coupling); experiment: Carbenoxolone uncoupling of tandem cell units, dual patch clamp with optical pacing; format: cell-based; conditions: 200 μM carbenoxolone perfusion, light-triggered action potentials before, during and after washout (FIG. 5f)
Description: Dual patch clamp experiments were performed within 48 hours after plating. Briefly, experiments were carried out on heterologous (HEK-ChR2— canine myocyte) cell pairs within 48 hours after plating, as described previously. A dual whole-cell voltage-clamp method was used to control and record the membrane potential of both cells and to measure associated membrane and junctional currents. Each cell of a pair was voltage clamped at the same potential by two separate patch clamp amplifiers (Axopatch 200, Axon Instruments). To record junctional conductance, brief voltage steps (±10 mV, 400 ms) were applied to one cell of a pair, whereas the other cell was held at constant voltage and the junctional currents were recorded from the unstepped cell. Membrane and action potentials were recorded in current-clamp mode. For electrical recordings, glass coverslips with adherent cells were transferred to an experimental chamber mounted on the stage of an inverted microscope (Olympus-IX71) equipped with a fluorescence imaging system. […] When filled, the resistance of the pipettes measured 1-4MΩ. […] Contractility movies were recorded in response to optical pacing before and during administration of carbenoxolone, and upon washout to assess the role of gap junctional coupling in the functionality of the tandem cell unit.

[2] = test system: cardiac syncytium of neonatal rat cardiomyocytes and HEK-ChR2 (gap junctional coupling); experiment: Carbenoxolone uncoupling in cardiac syncytium, contractility under optical pacing; format: cell-based; conditions: 200 μM carbenoxolone for 20 min without perfusion, contractility in response to optical pacing
Description: Carbenoxolone, CBX, (Sigma), a gap junctional uncoupler, was used at a concentration 200 μM in the dual-patch experiments with canine cardiomyocytes and HEK-ChR2 or in the cardiac syncytium of neonatal rat cardiomyocytes and HEK-ChR2. In the latter case, CBX was applied for 20 min (without perfusion) in the co-cultures of HEK-ChR2 cells and cardiomyocytes. Contractility movies were recorded in response to optical pacing before and during administration of carbenoxolone, and upon washout to assess the role of gap junctional coupling in the functionality of the tandem cell unit. Microscopic imaging for confirmation of gene expression or for documenting contractions by optical excitation was done with the Olympus FluoView™ FV1000 confocal system at room temperature. An EMCCD camera (ImagEM EMCCD camera from Hamamatsu, Bridgewater, N.J.) attached to the Olympus FluoView™ FV1000 microscope was used to record contractility movies at 20 fps with 60× oil lens (NA=1.42) using SlideBook 5 software (Intelligent Imaging Innovations, Denver, Colo.). In addition, contractility response was also documented by automatic optical tracking of cell length at 250 Hz using an IonOptix videosystem (IonOptix) attached to a Nikon TE2000 inverted microscope.

Q: With `CC1(C)[C@@H](OC(=O)CCC(=O)O)CC[C@]2(C)[C@H]3C(=O)C=C4[C@@H]5C[C@@](C)(C(=O)O)CC[C@]5(C)CC[C@@]4(C)[C@]3(C)CC[C@@H]12` [cabenoxolone, carbenoxolone] as the compound, how does the “effect of pharmacological uncoupling on light-sensitivity of the myocytes in the TCUs” value [1] read?
A: abolished the light-sensitivity of the myocytes in the TCUs

Q: What about the “effect of pharmacological uncoupling on light-sensitivity of the myocytes in the TCUs” value [2] of the same compound?
A: abolished the light-sensitivity of the myocytes in the TCUs
